Results on 2 compounds are retold here after article PMC3413214, “Structural and biochemical characterization of a trapped coenzyme A adduct of Caenorhabditis elegans glucosamine-6-phosphate N-acetyltransferase 1” (Acta Crystallographica Section D: Biological Crystallography, 2012).

For assay [1], the target named is T1, CeGNA1 (Caenorhabditis elegans, UniProt Q17427).
T1 construct: gene gna-1; full-length, 165 residues; GST fusion from pGEX-6P-1 in E. coli BL21(DE3) pLysS, GST cut with PreScission protease; homodimer; 18 876 Da by MALDI
T1 sequence (Q17427 whole entry, the tested form may be a part): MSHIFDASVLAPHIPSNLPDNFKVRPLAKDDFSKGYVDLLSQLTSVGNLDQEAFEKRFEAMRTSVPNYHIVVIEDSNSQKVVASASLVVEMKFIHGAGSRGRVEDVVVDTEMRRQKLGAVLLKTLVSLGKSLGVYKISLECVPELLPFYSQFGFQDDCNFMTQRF
As to the kind of experiment: X-ray crystal structure, […] Å; MALDI-TOF mass spectrometry. Conditions: covalent; disulfide to Cys141, inactive enzyme, reversed by DTT; nonreducing crystallisation, pH 8.5. It is filed as binding.

Assay [2] concerns the target T1, CeGNA1. As to the kind of experiment: X-ray crystal structure, […] Å. It is filed as binding. Conditions: ternary product complex with CoA; acceptor (GlcN-6P) subsite at dimer interface; crystals at pH 8.5.

On to `CC(C)(COP(=O)(O)OP(=O)(O)OC[C@H]1O[C@@H](n2cnc3c(N)ncnc32)[C@H](O)[C@@H]1OP(=O)(O)O)[C@@H](O)C(=O)NCCC(=O)NCCS` [CoA], for which, on CeGNA1 [1], the “X-ray crystal structure, 1.55 Å; MALDI-TOF mass spectrometry” value is given as “the CoA thiol has formed a covalent complex with the enzyme through a disulfide”.
For the compound `CC(=O)N[C@H]1C(O)O[C@H](COP(=O)(O)O)[C@@H](O)[C@@H]1O` (some centres unmarked) [GlcNAc-6P], the “X-ray crystal structure, 1.75 Å” value on CeGNA1 [2] was “occupied by the products CoA and GlcNAc-6-phosphate, both with well defined electron density”.
